In the supplement of paper PMC11451515:

Legend:
Assay in all cases: AUC of viability dose-response curve (% viability x log10 dose units); higher = less sensitive
Conditions in all cases: 48 h
P12-Ichikawa = tested on: P12-Ichikawa
Method in brief: (§1)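 Leukemia cells adapted to each medium were seeded in 1536-well plates (500 or 1000 cells/well) and given library compounds in DMSO for 48 h at 37°C. The 11 threefold doses spanned 47 μM to 0.79 nM, and CellTiter-Glo One luminescence was normalised per plate to DMSO and cell-free wells before four-parameter log-logistic fitting on log10 dose. Area under the curve was integrated with the trapezoidal rule, scaling curves above full viability and removing curves that failed quality control.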

NOMO1 = tested on: NOMO1
Method in brief: as §1

SEM cells = tested on: SEM cells
Method in brief: as §1

[1] = RPMI 5 mM glucose + 10% dialyzed FBS

SMILES	AUC of viability dose-response curve (P12-Ichikawa; HPLM + 10% dialyzed FBS)	AUC of viability dose-response curve (P12-Ichikawa; RPMI 5 mM glucose + 10% FBS)	AUC of viability dose-response curve (P12-Ichikawa; [1])	AUC of viability dose-response curve (NOMO1; HPLM + 10% dialyzed FBS)	AUC of viability dose-response curve (NOMO1; RPMI 5 mM glucose + 10% FBS)	AUC of viability dose-response curve (NOMO1; [1])	AUC of viability dose-response curve (SEM cells; HPLM + 10% dialyzed FBS)	AUC of viability dose-response curve (SEM cells; RPMI 5 mM glucose + 10% FBS)	AUC of viability dose-response curve (SEM cells; [1])
COc1cc(N2CCC(C(N)=O)CC2)ccc1Nc1nc(N)c(Cl)c(Nc2ccccc2[S+](=O)([O-])C(C)C)n1	445	421	410	381	393	372	360	375	350
CNC(=O)[C@H](Cc1ccccc1)NC(=O)[C@H](CC(C)C)[C@H](CSc1cccs1)C(=O)NO	409	373	386	433	402	415	405	389	340
O=C(NC1CCOCC1)c1ccc(-c2cc(-c3c[nH]nc3-c3ccccn3)ccn2)cc1	463	448	435	458	465	466	464	474	453
ClC1=CC=C(CCCOC/2=N/NC(=O)C(=C2NCC3=CN=CC=C3)/Br)C=C1	387	430	382	344	390	392	323	358	391
C#CCN(C)[C@H](C)Cc1ccccc1	431	413	402	401	385	410	401	410	407
Fc1ccc(C(c2ccc(F)cc2)N2CCN(C/C=C/c3ccccc3)CC2)cc1	456	462	447	432	467	457	404	392	424
Nc1nc(-c2nn(Cc3ccccc3F)c3ncccc23)nc(N)c1N1CCOCC1	469	463	473	461	458	467	462	458	467
Nc1ccccc1NC(=O)c1ccc(CNc2nccc(-c3cccnc3)n2)cc1	355	349	352	351	364	353	312	306	304
O=C1CSC(=O)N1C(CCc1ccncc1)COc1ccc(-c2cccc([N+](=O)[O-])c2)cc1 (configuration not stated)	447	394	436	444	446	454	427	433	467
CC1SC/2=C(C(O)=O)/C(=O)C3=CC(=C(C=C3N12)N4CCN(CC4)C\C5=C(C)\OC(=O)O5)F (configuration not stated)	437	449	449	413	456	443	472	442	449
COC[C@H](NC(=O)c1cnc(C)s1)C(=O)N[C@@H](COC)C(=O)N[C@@H](Cc1ccccc1)C(=O)[C@@]1(C)CO1	251	245	231	265	273	271	214	213	199
C[C@H](NC(=O)C(=O)Nc1ccccc1C(C)(C)C)C(=O)N[C@@H](CC(=O)O)C(=O)COc1c(F)c(F)cc(F)c1F	440	427	425	428	445	450	395	391	390
O=[N+]([O-])c1cn2c(n1)OC[C@@H](OCc1ccc(OC(F)(F)F)cc1)C2	450	453	458	454	459	470	444	466	455
O=C(Cc1cccc(OC(F)(F)F)c1)Nc1ccc(CCCCc2nnc(NC(=O)Cc3ccccn3)s2)nn1	426	386	387	407	388	394	381	276	277
COCCOC(=O)C/1=C(C)/NC/2=C(C1C3=CC=CC(=C3)O)/C(=O)CC(C2)C4=C(OC)C=CC=C4 (configuration not stated)	450	451	448	454	469	467	425	415	413
Fc1cc(-c2cccc3ncc(-c4cnn(C5CCNCC5)c4)nc23)cc(F)c1CN1CCOCC1	407	423	412	378	409	412	379	378	385
Cc1[nH]c(/C=C2\C(=O)Nc3ccc([S+](=O)([O-])N(C)c4cccc(Cl)c4)cc32)c(C)c1C(=O)N1CCN(C)CC1	436	430	432	451	462	456	393	379	368
NC(=O)N1c2ccccc2CC(=O)c2ccccc21	461	456	464	408	444	466	466	427	389
CN[C@H](CC(C)C)C(=O)N[C@H]1C(=O)N[C@@H](CC(N)=O)C(=O)N[C@H]2C(=O)N[C@H]3C(=O)N[C@H](C(=O)N[C@H](C(=O)O)c4cc(O)cc(O)c4-c4cc3ccc4O)[C@H](O)c3ccc(c(Cl)c3)Oc3cc2cc(c3O[C@@H]2O[C@H](CO)[C@@H](O)[C@H](O)[C@H]2O[C@H]2C[C@](C)(N)[C@H](O)[C@H](C)O2)Oc2ccc(cc2Cl)[C@H]1O	457	462	454	439	468	475	463	458	473
CCC(=O)O[C@@]1([C@@H](C)C[C@H]2[C@@H]3CCC/4=C/C(=O)/C=C\[C@]4(C)[C@@]3(F)[C@@H](O)C[C@]12C)C(=O)CCl	325	254	251	411	467	429	339	336	308
O=C(O)c1ccc2cc(-c3ccc(O)c(C45CC6CC(CC(C6)C4)C5)c3)ccc2c1	299	285	277	323	330	311	287	282	266
CC(C)C[C@H](CN)CC(=O)O	450	458	455	460	445	458	449	452	451
CC(C)(C)OC(=O)CN(Cc1ccc(Cl)cc1)Cc1ccc([N+](=O)[O-])s1	456	443	429	441	436	464	449	454	436
